The record followed here is paper PMC6060375 (Drug Delivery, 2018).

Data set [1] can be described thus: Pharmacokinetics of TA in rats after i.v. administration. Type of data set: in vivo, Sprague–Dawley (SD) rats. The settings on record: both sexes, Sprague-Dawley, rat, plasma, iv, total TA, 3 mg/kg TA equivalent. How it is done:
Sprague–Dawley (SD) rats (male and female, 300 ± 30 g) were purchased from SIPPR/BK Experimental Animal Co., Ltd (Shanghai, China). All animals were kept in a humanized environment, with the temperature maintained at 20 ± 2 °C and relative humidity at 50 ± 10%. All the animal procedures were performed following the approved protocol. SD rats were randomly divided into different groups (n = 4 in each group). Rats from different groups were intravenously (i.v.) administrated with TA solution, PEGylated TA solution mPEG2K-SA-TA, respectively. At the designated time points, the blood samples were collected into polyethylene tubes containing EDTA at 0, 0.083, 0.167, 0.5, 0.75, 1, 2, 4, 8, 12, 24, 36 and 48 h and then centrifuged at 12,000 rpm for 5 min to obtain plasma. The plasma samples were stored at −80 °C till analysis. The harvested plasma samples were prepared by sample direct saponification or extraction and analyzed by GC–MS/MS (Wang et al., [2015]). […]
The pharmacokinetic parameters were calculated by a noncompartmental analysis using WinNonlin (Version 6.4; Pharsight, Mountain View, CA, USA). […] The systemic exposure to TA (area under the plasma concentration versus time profile from the dosing time to the terminal sampling time, AUC0−t) was calculated by trapezoidal rule. […]

Data set [2] can be described thus: Tissue distribution of TA in tumor-bearing nude mice (GC-MS/MS). Format: in vivo. To be noted: BALB/c nude, mouse, spleen, intravenous; TA measured after treatment of nude mice with mPEG2K-SA-TA; dose group not stated; read-out: tissue exposure to TA in spleen. The method, then: In order to better support the anti-tumor evaluation and following histological assay, the harvested tissues were prepared as abovementioned method to monitor the amount of TA by GC–MS/MS in these tissues, including heart, liver, spleen, lung, kidney and tumor.

As to `CCCCCCCCCCCCCCCCCCCCCCCCCCCCCCO` [TA, Triacontanol], in data set [1] (read-out: elimination half-life (t1/2) (converted)), the half-life was 154 min. In addition, the MRT in data set [1] (read-out: mean residence time) is 2.95 h. For the same compound, in data set [2], the concentration at 21 days is 4170 ng/g.
